From patent US20170246267A1, “CHOLINERGIC ANTAGONISM AS AN ADJUNCT TO CANCER THERAPY” (The Trustees of Columbia University in the City of New York, priority 2014, published 2017)
Entries after “also recorded” stand apart in the source; their conditions may differ. Starred links: 1 amine or outer side, 2 acyl side, 3 side chain; linkers in the order of their positions; H or OH if unused. Positions of bridges follow the written chain, without caps; N, C: chain ends. Non-standard residues stand in square brackets, D forms with d. Residues, ends and D or L forms follow the SMILES beside them. X1 = CC(=O)NC(C(=O)OC(C(C)C)C(N[*:1])C(=O)[*:2])C(O)C(C)C; PhLac = O=C(O)[CH](O)Cc1ccccc1; NMeT = CN[CH](C(=O)O)[CH](C)O; NMeA = CN[CH](C)C(=O)O; NMeDha = C=C(NC)C(=O)O

How the values were obtained:
[1] = tested on: INS-GAS mice; conditions: mouse, in vivo
[2] = tested on: small cell lung cancer xenografts; conditions: reference 50; cited from earlier work
[3] = tested on: INS-GAS mice; conditions: mouse, in vivo; remark: listed apart in the source
[4] = tested on: Dclk1-CreERT; R26-DTA mice; conditions: mouse, in vivo
[5] = tested on: DSS-colitis; assay: Bethanechol in drinking water in DSS-colitis; format: in vivo, mouse
[6] = Bethanechol and response to 15 Gy abdominal irradiation (AIR); format: in vivo, mouse
[7] = tested on: TMK1 gastric cancer cell line; assay: YAP immunoblotting in TMK1 gastric cancer cell line; format: cell-based, human; set-up: changes of YAP phosphorylation after carbachol stimulation: dose or concentration left out as unconfirmed
Procedure: (§1) Similarly, carbachol treatment in Apc-deleted gastric organoids reduced the level of phosphorylated YAP (FIG. 51G). […] Next a human M3R gene-expressing construct was transfected into the M3R-negative AGS cell line. Overexpression of M3R decreased the level of phosphorylated YAP in a Gq-dependent manner, and activated the transcriptional activity of YAP in a luciferase assay (Dupont et al., 2011) (FIGS. 45B, 45C, and 52A).
(§2) Protein lysates were prepared from cells, separated by sodium dodecyl sulfate-polyacrylamide gel electrophoresis (SDS-PAGE), transferred to polyvinylidene difluoride membranes (Millipore). The membrane was probed with primary antibodies (phospho-YAP (Cell Signaling, 1:1000), YAP (Cell Signaling, 1:1000, and β-actin (Sigma, 1:5000) antibodies), and then incubated with the secondary antibody. Immunocomplexes were detected using the enhanced chemiluminescence system (Amersham Biosciences).
(§3) The human cancer cell lines were cultured in RPMI, DMEM, or Ham's F-12 medium supplemented with 10% fetal bovine serum, as described previously (Hayakawa et al., 2011).

[8] = tested on: gastric organoids; assay: Stem cell marker / Wnt target gene expression in gastric organoids (qRT-PCR); format: cell-based, mouse
[9] = tested on: gastric organoids; assay: In vitro gastric organoid culture with or without neuron co-culture: organoid growth; format: cell-based, mouse
[10] = tested on: human cancer cells; assay: NGF expression in human cancer cells treated with carbachol; format: cell-based; conditions: TMK-1 cells, 10 mM carbachol for 24 hours
Text: as §1
Total RNA was extracted from whole stomach samples from each animal using TRIzol reagent (Invitrogen) or the RNAqueous-micro kit (Ambion) and subjected to first-strand complementary DNA synthesis using the Superscript III cDNA Amplification System (Invitrogen) following the manufacturer's instructions. qRT-PCR was performed using a three-step method, an ABI 7300 system and SYBR green (Roche). The qRT-PCR primer sequences are available upon request. The results were expressed as the copy number of each gene relative to that of Gapdh or GAPDH.
as §3

[11] = tested on: Apc-deleted gastric organoids; assay: YAP immunoblotting in Apc-deleted gastric organoids treated with carbachol; format: cell-based, mouse; conditions: 1 mM carbachol for 7 days
Text: as §1
The harvested mouse stomachs were opened longitudinally and washed with cold PBS. The tissue was chopped into approximately 5 mm pieces, washed with cold PBS, and incubated in 8 mM EDTA in PBS for 60 minutes on ice. The tissue fragments were suspended vigorously in cold 10% FBS using a 10-mL pipette, yielding supernatants enriched in crypts. […]
as §2

[12] = tested on: gastric organoids; assay: Ngf expression in cultured gastric organoids treated with carbachol; format: cell-based, mouse
Text: In mouse gastric tumors, there was also a specific upregulation of Ngf (almost 20 times higher expression than the normal stomach), and such upregulation was not observed in any other neurotrophins (FIG. 40B). Similar upregulation of Ngf was found in mouse colorectal tumors induced by azoxymethane (AOM) and dextran sodium sulfate (DSS) (FIG. 47B). […] Immunostaining and in situ hybridization confirmed that NGF was expressed within the neoplastic epithelium rather than the stromal compartment (FIGS. 40D and 47C), a finding confirmed by cell sorting and subsequent qPCR (FIGS. 40E and 40F). MNU tumor-derived organoids that are cultured in isolation, separated from their native microenvironment, lost Ngf expression within 7 days. […] Therefore, ACh production, possibly from tuft cells initially but later from innervated nerves with axonogenesis, is at least partly responsible for the neoplastic upregulation of NGF.
The harvested mouse stomachs were opened longitudinally and washed with cold PBS. The tissue was chopped into approximately 5 mm pieces, washed with cold PBS, and incubated in 8 mM EDTA in PBS for 60 minutes on ice. The tissue fragments were suspended vigorously in cold 10% FBS using a 10-mL pipette, yielding supernatants enriched in crypts. Gland fractions were centrifuged at 900 rpm for 6 minutes at 4° C. and diluted with advanced DMEM/F12 (Invitrogen) containing B27, N2, 1 μM n-Acetylcysteine, 10 mM HEPES, penicillin/streptomycin, and Glutamax (all from Invitrogen). […]
Total RNA was extracted from whole stomach samples from each animal using TRIzol reagent (Invitrogen) or the RNAqueous-micro kit (Ambion) and subjected to first-strand complementary DNA synthesis using the Superscript III cDNA Amplification System (Invitrogen) following the manufacturer's instructions. qRT-PCR was performed using a three-step method, an ABI 7300 system and SYBR green (Roche). […] The results were expressed as the copy number of each gene relative to that of Gapdh or GAPDH.

[13] = after knockout of tuft cells, bethanechol in the drinking water

## NC(=O)C(c1ccccc1)(c1ccccc1)[C@@H]1CCN(CCc2ccc3c(c2)CCO3)C1 [darifenacin]
[1]
  cellular proliferation of the tumors: reduced
[2]
  growth of small cell lung cancer xenografts: inhibit

## O=C1[O][Pt]2([NH][C@@H]3CCCC[C@H]3[NH]2)[O]C1=O [oxaliplatin]
[3]
  tumor size: no effect

## CC(C[N+](C)(C)C)OC(N)=O (centres unmarked) [bethanechol]
[4]
  loss of proliferation in the stomach by Dclk1+ cell ablation: rescue this effect at least in part; also recorded: significantly rescued
[5]; after ablation of Dclk1+ (tuft) cells, bethanechol in the drinking water
  mucosal / intestinal regeneration: restored; also recorded: improve
[5]; [13]
  proliferation: improved
  ulcer length: reduction
[5]; bethanechol-treated
  DSS colitis: Significant improvement
[5]; mouse, in vivo
  proliferation (Ki67): increased
[6]; 15 Gy abdominal irradiation, bethanechol as a single agent immediately before or after the radiation
  survival: no significant overall impact
[6]; both pre- and post-radiation treated mice
  appearance of the colon after radiation: almost normal appearing
[6]; day +4 after radiation, both pre- and post-radiation treated mice
  improvement of histopathologic score for the colon compared to the controls: > 65%

## C=C1C(=O)NC(C)C(=O)N(C)C(C)C(=O)NC(C(OC(=O)C(NC(C)=O)C(O)C(C)C)C(C)C)C(=O)N(C)C(C(C)OC)C(=O)OC(C)C(NC(C)=O)C(=O)OC(Cc2ccccc2)C(=O)N1C (centres unmarked) [YM254890] (Ac-T[PhLac][NMeDha]A[NMeA][X1][NMeT](Me); ester 1-C; configuration not given here)
[7]; pretreated with YM254890
  changes of YAP phosphorylation after carbachol stimulation: blocked

## NGF: nerve growth factor, used to treat TMK-1 cells
[7]; TMK-1 cells treated with NGF
  YAP activation: did not cause

## O=c1[nH]cc(F)c(=O)[nH]1 [5-FU, 5-Fluorouracil]
[3]
  tumor size: no effect

## CC[C@@H]1C(=O)OC[C@@H]1Cc1cncn1C [pilocarpine]
[8]; gastric organoids of M3KO mice
  expression of Lgr5, Cd44, and Sox9: no effects
[8]; organoids from WT mice, 10 or 100 μM, day 7, dose-dependent
  expression of gastric stem cell markers and Wnt target genes Lgr5, Cd44, and Sox9: up-regulation
[9]; relative number of organoids at day 10, 100 μM pilocarpine
  organoid growth: stimulated

## CN1[C@@H]2C[C@@H](OC(=O)[C@H](CO)c3ccccc3)C[C@H]1[C@@H]1O[C@@H]12 [scopolamine]
[9]
  stimulatory effect of neuron co-culture on gastric organoid growth: inhibited

## C[N+](C)(C)CCOC(N)=O [carbachol]
[10]
  NGF expression: significantly upregulated
[11]
  level of phosphorylated YAP: reduced
[12]; MNU tumor-derived organoids cultured in isolation, day 7
  Ngf expression: upregulated; also recorded: partly reestablished
[12]; gastric organoids from WT mice, carbachol for 7 days
  Ngf expression: upregulated
[12]; organoids from M3 Receptor Knockout (M3RKO) mice
  NGF expression: no change
[7]; 1 mM carbachol
  level of phosphorylated YAP: reduced
  levels of total YAP: no significant changes
